{"source": "ChEMBL document CHEMBL5579901", "about": "“Discovery of Novel [1,2,4]Triazolo[1,5-a]pyrimidine Derivatives as Novel Potent S-Phase Kinase-Associated Protein 2 (SKP2) Inhibitors for the Treatment of Cancer” (J Med Chem, 2024)"}
{"test_system": "A549", "assay": "Antiproliferative activity against human A549 cells incubated for 48 hrs by MTT assay", "format": "functional, cell-based", "details": "A549, 48 h", "units": {"IC50": "µM"}}
{"smiles": "COc1cc(C2=NC3=NC(C)=C(C(C)=O)C(c4ccc([N+](=O)[O-])cc4)N3N2)cc(OC)c1OC", "note": "(configuration not stated)", "IC50": 1.02}
{"test_system": "PC-3", "assay": "Inhibition of cell proliferation in human PC-3 cells incubated for 72 hrs by MTT assay", "format": "functional, cell-based", "details": "PC-3, 72 h", "units": {"IC50": "µM"}}
{"smiles": "O=c1[nH]cc(F)c(=O)[nH]1", "note": "[FLUOROURACIL]", "IC50": 10.2}
{"molecular_target": "T1, Cyclin-dependent kinases regulatory subunit 1/S-phase kinase-associated protein 2 (Homo sapiens, UniProt Q13309)", "T1 sequence (P61024 whole entry)": "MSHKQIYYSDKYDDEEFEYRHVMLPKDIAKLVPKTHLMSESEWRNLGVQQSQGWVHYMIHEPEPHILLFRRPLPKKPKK", "T1 sequence (Q13309 whole entry)": "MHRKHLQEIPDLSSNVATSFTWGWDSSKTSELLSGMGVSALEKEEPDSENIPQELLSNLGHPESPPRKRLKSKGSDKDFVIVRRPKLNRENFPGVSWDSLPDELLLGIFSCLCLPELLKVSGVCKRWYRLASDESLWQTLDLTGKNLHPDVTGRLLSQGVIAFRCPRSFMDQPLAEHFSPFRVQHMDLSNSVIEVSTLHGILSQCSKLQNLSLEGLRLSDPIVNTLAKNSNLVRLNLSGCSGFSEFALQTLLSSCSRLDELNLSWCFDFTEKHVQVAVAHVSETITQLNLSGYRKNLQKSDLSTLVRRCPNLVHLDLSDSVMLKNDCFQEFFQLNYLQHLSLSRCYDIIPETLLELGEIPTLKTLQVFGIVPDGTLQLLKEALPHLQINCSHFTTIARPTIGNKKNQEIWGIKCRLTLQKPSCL", "assay": "Inhibition of GST-tagged SKP2 (unknown origin) binding to His6-tagged CKS1 (unknown origin) preincubated with SKP2 for 10 mins followed by CKS1 addition for 20 mins and measured after by HTRF method", "format": "protein assay", "details": "not given", "units": {"IC50": "µM"}}
{"smiles": "Cc1cc(-c2ccc3c(c2)OCCO3)n2nc(SCc3ccc(Br)cc3)nc2n1", "IC50": 70.9}
{"smiles": "Cc1cc(-c2ccc(C(=O)N3CCN(C)CC3)cc2)n2nc(SCc3ccc(Br)cc3)nc2n1", "IC50": "> 100"}
{"smiles": "COc1cc(OC)c(-c2cc(C)nc3nc(SCc4cccc(Cl)c4)nn23)c(OC)c1", "IC50": "> 100"}
{"smiles": "COc1cc(OC)c(-c2cc(C)nc3nc(SCc4ccc(F)cc4)nn23)c(OC)c1", "IC50": 98.1}
{"smiles": "COc1cc(OC)c(-c2cc(C)nc3nc(SCc4ccncc4)nn23)c(OC)c1", "IC50": "> 100"}
{"smiles": "COc1cc(OC)c(-c2cc(C)nc3nc(SCc4cccc(Cl)c4Cl)nn23)c(OC)c1", "IC50": "> 100"}
{"smiles": "COc1cc(OC)c(-c2cc(C)nc3nc(SCc4cccc5ccccc45)nn23)c(OC)c1", "IC50": "> 100"}
{"smiles": "C#CCSc1nc2nc(C)cc(-c3c(OC)cc(OC)cc3OC)n2n1", "IC50": "> 100"}
{"smiles": "C=CCSc1nc2nc(C)cc(-c3c(OC)cc(OC)cc3OC)n2n1", "IC50": "> 100"}
{"smiles": "Cc1cc(-c2ccc(-c3ccccc3)cc2)n2nc(SCc3ccc(Br)cc3)nc2n1", "IC50": 10.5}
{"smiles": "COc1ccc(CSc2nc3nc(C)cc(-c4c(OC)cc(OC)cc4OC)n3n2)cc1", "IC50": "> 100"}
{"smiles": "COc1ccccc1-c1cc(C)nc2nc(SCc3ccc(Br)cc3)nn12", "IC50": "> 100"}
{"smiles": "COC(=O)c1ccc(Nc2cc(C)nc3nc(SCc4ccc(Br)cc4)nn23)cc1", "IC50": "> 100"}
{"smiles": "COc1cc(OC)c(-c2cc(C)nc3nc(SCc4ccc(C)cc4)nn23)c(OC)c1", "IC50": "> 100"}
{"smiles": "COc1cc(OC)c(-c2cc(C)nc3nc(SCc4ccccc4Br)nn23)c(OC)c1", "IC50": 66.7}
{"smiles": "COc1cc(OC)c(-c2cc(C)nc3nc(SCc4cnc(Cl)s4)nn23)c(OC)c1", "IC50": 72.5}
{"smiles": "COc1cc(OC)c(-c2cc(C)nc3nc(SCc4ccc(Cl)cc4)nn23)c(OC)c1", "IC50": "> 100"}
{"smiles": "Cc1cc(-c2cccc(C(=O)N3CCN(C)CC3)c2)n2nc(SCc3ccc(Br)cc3)nc2n1", "IC50": "> 100"}
{"smiles": "Cc1cc(Cl)n2nc(SCc3ccc(Br)cc3)nc2n1", "IC50": 75.1}
{"smiles": "CCCSc1nc2nc(C)cc(-c3c(OC)cc(OC)cc3OC)n2n1", "IC50": "> 100"}
{"smiles": "COc1cccc(OC)c1-c1cc(C)nc2nc(SCc3ccc(Br)cc3)nn12", "IC50": 75.6}
{"smiles": "COc1cc(OC)c(-c2cc(C)nc3nc(SCc4ccc(C(F)(F)F)cc4)nn23)c(OC)c1", "IC50": 93.1}
{"smiles": "COc1cc(OC)c(-c2cc(C)nc3nc(SCc4ccccc4)nn23)c(OC)c1", "IC50": 14.7}
{"smiles": "COc1cccc(-c2cc(C)nc3nc(SCc4ccc(Br)cc4)nn23)c1", "IC50": 40.3}
{"smiles": "COc1cc(OC)c(-c2cc(C)nc3nc(SCC4CCOCC4)nn23)c(OC)c1", "IC50": "> 50"}
{"smiles": "COc1cc(OC)c(-c2cc(C)nc3nc(SCc4cccc(Br)c4)nn23)c(OC)c1", "IC50": 61}
{"smiles": "COc1cc(OC)c(-c2cc(C)nc3nc(SCC4CCC4)nn23)c(OC)c1", "IC50": 82.5}
{"smiles": "COc1cc(OC)c(-c2cc(C)nc3nc(SCCCc4ccccc4)nn23)c(OC)c1", "IC50": "> 100"}
{"smiles": "Cc1cc(Br)n2nc(SCc3ccc(Br)cc3)nc2n1", "IC50": 68}
{"smiles": "COC(=O)c1cccc(CSc2nc3nc(C)cc(-c4c(OC)cc(OC)cc4OC)n3n2)c1", "IC50": "> 100"}
{"smiles": "Cc1cc(-c2ccccc2)n2nc(SCc3ccc(Br)cc3)nc2n1", "IC50": 45.1}
{"smiles": "COC(=O)c1cccc(Nc2cc(C)nc3nc(SCc4ccc(Br)cc4)nn23)c1", "IC50": "> 100"}
{"smiles": "Cc1cc(-c2cccc(C(=O)O)c2)n2nc(SCc3ccc(Br)cc3)nc2n1", "IC50": "> 100"}
{"smiles": "COc1cc(OC)c(-c2cc(C)nc3nc(SCc4ccc(Br)cc4)nn23)c(OC)c1", "IC50": 11.9}
{"smiles": "CCSc1nc2nc(C)cc(-c3c(OC)cc(OC)cc3OC)n2n1", "IC50": "> 100"}
{"smiles": "COc1cc(OC)c(-c2cc(C)nc3nc(SCC4CCCC4)nn23)c(OC)c1", "IC50": 62.3}
{"smiles": "Cc1cc(-c2ccc(C(=O)O)cc2)n2nc(SCc3ccc(Br)cc3)nc2n1", "IC50": "> 100"}
{"smiles": "COc1cc(-c2cc(C)nc3nc(SCc4ccc(Br)cc4)nn23)cc(OC)c1OC", "IC50": 30.9}
{"smiles": "COc1cc(OC)c(-c2cc(C)nc3nc(SCC4CCCCC4)nn23)c(OC)c1", "IC50": 17.4}
{"smiles": "COc1ccc(-c2cc(C)nc3nc(SCc4ccc(Br)cc4)nn23)cc1", "IC50": 72.4}
{"molecular_target": "T1, Cyclin-dependent kinases regulatory subunit 1/S-phase kinase-associated protein 2", "assay": "Inhibition of GST-tagged SKP2 (unknown origin) binding to His6-tagged CKS1 (unknown origin) incubated for 1 hr by AlphaScreen assay", "format": "protein assay", "details": "not given", "units": {"IC50": "µM"}}
{"smiles": "O=C(OCC12CC3CC(CC(C3)C1)C2)c1ccc(NCc2cc(O)ccc2O)cc1", "IC50": 36.6}
{"smiles": "COC(=O)c1ccc(CCc2cc(O)ccc2O)cc1", "IC50": 36.6}
{"molecular_target": "T2, Cyclin-dependent kinases regulatory subunit 1/S-phase kinase-associated protein 2 (Homo sapiens) (UniProt P61024+Q13309)", "T2 sequence (P61024 2-79 limits assumed)": "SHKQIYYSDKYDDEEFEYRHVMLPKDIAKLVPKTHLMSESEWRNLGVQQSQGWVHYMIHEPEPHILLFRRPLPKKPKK", "T2 sequence (Q13309 whole entry partner)": "as the sequence (Q13309 whole entry) above", "assay": "Inhibition of GST-tagged SKP2 (unknown origin) binding to His6-tagged CKS1 (unknown origin) at 50 uM preincubated with SKP2 for 10 mins followed by CKS1 addition for 20 mins and measured after by HTRF method relative to control", "format": "protein assay", "details": "time 30.0 min", "units": {"inhibition": "%"}}
{"smiles": "Cc1cc(-c2ccc3c(c2)OCCO3)n2nc(SCc3ccc(Br)cc3)nc2n1", "inhibition": 37.4}
{"smiles": "Cc1cc(-c2ccc(C(=O)N3CCN(C)CC3)cc2)n2nc(SCc3ccc(Br)cc3)nc2n1", "inhibition": 14.6}
{"smiles": "COc1cc(OC)c(-c2cc(C)nc3nc(SCc4cccc(Cl)c4)nn23)c(OC)c1", "inhibition": 15.9}
{"smiles": "COc1cc(OC)c(-c2cc(C)nc3nc(SCc4ccc(F)cc4)nn23)c(OC)c1", "inhibition": 24}
{"smiles": "COc1cc(OC)c(-c2cc(C)nc3nc(SCc4ccncc4)nn23)c(OC)c1", "inhibition": 10}
{"smiles": "COc1cc(OC)c(-c2cc(C)nc3nc(SCc4cccc(Cl)c4Cl)nn23)c(OC)c1", "inhibition": 7.29}
{"smiles": "COc1cc(OC)c(-c2cc(C)nc3nc(SCc4cccc5ccccc45)nn23)c(OC)c1", "inhibition": 17.4}
{"smiles": "C#CCSc1nc2nc(C)cc(-c3c(OC)cc(OC)cc3OC)n2n1", "inhibition": 5.84}
{"smiles": "C=CCSc1nc2nc(C)cc(-c3c(OC)cc(OC)cc3OC)n2n1", "inhibition": 2.51}
{"smiles": "Cc1cc(-c2ccc(-c3ccccc3)cc2)n2nc(SCc3ccc(Br)cc3)nc2n1", "inhibition": 66.2}
{"smiles": "COc1ccc(CSc2nc3nc(C)cc(-c4c(OC)cc(OC)cc4OC)n3n2)cc1", "inhibition": 11.5}
{"smiles": "COc1ccccc1-c1cc(C)nc2nc(SCc3ccc(Br)cc3)nn12", "inhibition": 27.2}
{"smiles": "COC(=O)c1ccc(Nc2cc(C)nc3nc(SCc4ccc(Br)cc4)nn23)cc1", "inhibition": 12.4}
{"smiles": "COc1cc(OC)c(-c2cc(C)nc3nc(SCc4ccc(C)cc4)nn23)c(OC)c1", "inhibition": 11.5}
{"smiles": "COc1cc(OC)c(-c2cc(C)nc3nc(SCc4ccccc4Br)nn23)c(OC)c1", "inhibition": 43}
{"smiles": "COc1cc(OC)c(-c2cc(C)nc3nc(SCc4cnc(Cl)s4)nn23)c(OC)c1", "inhibition": 31.5}
{"smiles": "COc1cc(OC)c(-c2cc(C)nc3nc(SCc4ccc(Cl)cc4)nn23)c(OC)c1", "inhibition": 9.13}
{"smiles": "COc1cc(OC)c(-c2cc(C)nc3nc(SCc4ccc(I)cc4)nn23)c(OC)c1", "inhibition": 41.7}
{"smiles": "Cc1cc(-c2cccc(C(=O)N3CCN(C)CC3)c2)n2nc(SCc3ccc(Br)cc3)nc2n1", "inhibition": 23.4}
{"smiles": "Cc1cc(Cl)n2nc(SCc3ccc(Br)cc3)nc2n1", "inhibition": 22}
{"smiles": "CCCSc1nc2nc(C)cc(-c3c(OC)cc(OC)cc3OC)n2n1", "inhibition": 24.5}
{"smiles": "COc1cccc(OC)c1-c1cc(C)nc2nc(SCc3ccc(Br)cc3)nn12", "inhibition": 37}
{"smiles": "COc1cc(OC)c(-c2cc(C)nc3nc(SCc4ccc(C(F)(F)F)cc4)nn23)c(OC)c1", "inhibition": 27.1}
{"smiles": "COc1cc(OC)c(-c2cc(C)nc3nc(SCc4ccccc4)nn23)c(OC)c1", "inhibition": 60}
{"smiles": "COc1cccc(-c2cc(C)nc3nc(SCc4ccc(Br)cc4)nn23)c1", "inhibition": 58.7}
{"smiles": "COc1cc(OC)c(-c2cc(C)nc3nc(SCC4CCOCC4)nn23)c(OC)c1", "inhibition": 16.3}
{"smiles": "COc1cc(OC)c(-c2cc(C)nc3nc(SCc4cccc(Br)c4)nn23)c(OC)c1", "inhibition": 42.5}
{"smiles": "COc1cc(OC)c(-c2cc(C)nc3nc(SCC4CCC4)nn23)c(OC)c1", "inhibition": 20.2}
{"smiles": "COc1cc(OC)c(-c2cc(C)nc3nc(SCCCc4ccccc4)nn23)c(OC)c1", "inhibition": 20.3}
{"smiles": "Cc1cc(Br)n2nc(SCc3ccc(Br)cc3)nc2n1", "inhibition": 47}
{"smiles": "COC(=O)c1cccc(CSc2nc3nc(C)cc(-c4c(OC)cc(OC)cc4OC)n3n2)c1", "inhibition": 10.2}
{"smiles": "Cc1cc(-c2ccccc2)n2nc(SCc3ccc(Br)cc3)nc2n1", "inhibition": 55.3}
{"smiles": "COC(=O)c1cccc(Nc2cc(C)nc3nc(SCc4ccc(Br)cc4)nn23)c1", "inhibition": 12.4}
{"smiles": "Cc1cc(-c2cccc(C(=O)O)c2)n2nc(SCc3ccc(Br)cc3)nc2n1", "inhibition": 17.9}
{"smiles": "COc1cc(OC)c(-c2cc(C)nc3nc(SCc4ccc(Br)cc4)nn23)c(OC)c1", "inhibition": 69.6}
{"smiles": "CCSc1nc2nc(C)cc(-c3c(OC)cc(OC)cc3OC)n2n1", "inhibition": 3.73}
{"smiles": "COc1cc(OC)c(-c2cc(C)nc3nc(SCC4CCCC4)nn23)c(OC)c1", "inhibition": 28}
{"smiles": "Cc1cc(-c2ccc(C(=O)O)cc2)n2nc(SCc3ccc(Br)cc3)nc2n1", "inhibition": 20.1}
{"smiles": "COc1cc(-c2cc(C)nc3nc(SCc4ccc(Br)cc4)nn23)cc(OC)c1OC", "inhibition": 58.8}
{"smiles": "COc1cc(OC)c(-c2cc(C)nc3nc(SCC4CCCCC4)nn23)c(OC)c1", "inhibition": 60}
{"smiles": "COc1ccc(-c2cc(C)nc3nc(SCc4ccc(Br)cc4)nn23)cc1", "inhibition": 34.6}
{"test_system": "MGC-803", "assay": "Inhibition of cell proliferation in human MGC-803 cells incubated for 72 hrs by MTT assay", "format": "functional, cell-based", "details": "MGC-803, 72 h", "units": {"IC50": "µM"}}
{"smiles": "O=c1[nH]cc(F)c(=O)[nH]1", "note": "[FLUOROURACIL]", "IC50": 44.1}
{"molecular_target": "T2, Cyclin-dependent kinases regulatory subunit 1/S-phase kinase-associated protein 2 (Homo sapiens)", "assay": "Inhibition of GST-tagged SKP2 (unknown origin) to His6-tagged CKS1 (unknown origin) protein protein interaction at 50 umol/L by HTRF method relative to control", "format": "protein assay", "details": "dose 50.0 µmol/L", "units": {"inhibition": "%"}}
{"smiles": "COc1ccc(N2C(=O)c3ccccc3C2Cc2cc(-c3c(OC)cc(O)cc3OC)n3ncnc3n2)cc1", "note": "(configuration not stated)", "inhibition": 54}
